Assay results reported in BindingDB's records for PubMed 8558445 (Abbott Laboratories, 1996).

target: Neuronal acetylcholine receptor subunit alpha-4 (Homo sapiens, UniProt P43681)
Sequence (P43681 whole entry): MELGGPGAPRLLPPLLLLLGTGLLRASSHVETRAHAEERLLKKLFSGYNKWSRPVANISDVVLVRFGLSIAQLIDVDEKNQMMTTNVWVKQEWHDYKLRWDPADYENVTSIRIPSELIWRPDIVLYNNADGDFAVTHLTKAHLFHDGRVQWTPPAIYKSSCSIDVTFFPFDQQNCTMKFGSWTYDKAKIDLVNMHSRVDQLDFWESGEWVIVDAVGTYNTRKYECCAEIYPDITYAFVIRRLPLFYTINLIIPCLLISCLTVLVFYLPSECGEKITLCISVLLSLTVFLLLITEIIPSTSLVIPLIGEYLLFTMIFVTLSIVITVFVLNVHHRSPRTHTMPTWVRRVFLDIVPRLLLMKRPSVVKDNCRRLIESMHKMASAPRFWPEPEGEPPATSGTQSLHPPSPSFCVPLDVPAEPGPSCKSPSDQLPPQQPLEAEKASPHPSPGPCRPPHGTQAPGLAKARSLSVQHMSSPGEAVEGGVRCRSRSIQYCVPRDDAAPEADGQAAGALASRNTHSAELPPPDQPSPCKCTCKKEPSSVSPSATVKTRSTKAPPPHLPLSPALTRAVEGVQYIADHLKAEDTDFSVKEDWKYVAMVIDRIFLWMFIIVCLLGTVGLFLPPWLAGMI

Compared with `CNC1(C)C2CCC(C2)C1(C)C` (stereo unspecified) [Methyl-(2,3,3-trimethyl-bicyclo[2.2.1]hept-2-yl)-amine(Mecamylamine)], `CN1[C@@H](C[C@@H](O)c2ccccc2)CCC[C@H]1CC(=O)c1ccccc1` [Lobeline] is lower in Ki: over 10 µM for the first, 0.00192 µM for the second. The second binds more tightly here.

`C=C(C=O)C[C@H]1C[C@H](O)[C@]2(C)O[C@@H]3C[C@@H]4O[C@@H]5C[C@]6(C)O[C@]7(C)CC[C@@H]8O[C@@H]9C[C@]%10(C)O[C@@H]%11C(C)=CC(=O)O[C@H]%11C[C@H]%10O[C@H]9C[C@@H](C)[C@H]8O[C@H]7C[C@H]6O[C@@]5(C)C/C=C\[C@H]4O[C@H]3C[C@H]2O1` and `CCN1C[C@]2(COC(=O)c3ccccc3-n3c(O)cc(C)c3O)CC[C@H](OC)[C@]34C5C[C@@H]6[C@@H](OC)C[C@@](O)(C5[C@H]6OC)[C@@](O)(C13)[C@@H](OC)C24` (stereo partly drawn) [[(1S,4S,5R,6S,8R,9R,13S,16S,18S)-11-ethyl-8,9-dihydroxy-4,6,16,18-tetramethoxy-11-azahexacyclo[7.7.2.1^{2,5}.0^{1,10}.0^{3,8}.0^{13,17}]nonadecan-13-yl]methyl 2-[(3S)-3-methyl-2,5-dioxopyrrolidin-1-yl]benzoate] are within 1.5-fold of each other in Ki: 4.73 µM for the first, 3.21 µM for the second.

Going from `O=c1cccc2n1C[C@H]1CNC[C@H]2C1` [(1S,9R)-7,11-diazatricyclo[7.3.1.0~2,7~]trideca-2,4-dien-6-one] to `c1cncc(C2CCCCN2)c1` (stereo not drawn) [(+-)-anabasine], the Ki rises from 0.00043 µM to 0.0376 µM (87-fold). The first binds more tightly here.

Compared with `COc1cc2c3cc1Oc1cc(ccc1O)C[C@H]1c4c(cc(OC)c(O)c4Oc4ccc(cc4)C[C@@H]3N(C)CC2)CC[N+]1(C)C` [CAS_57-94-3], `C[N+]1(C)CCN(c2ccccc2)CC1` [DMPP] is 330-fold lower in Ki: 3.48 µM for the first, 0.0107 µM for the second.

Going from `C[N+](C)(C)CCOC(N)=O` [(2-Hydroxyethyl)trimethyl ammonium chloride carbamate] to `C[N+](C)(C)CCCCCCCCCC[N+](C)(C)C` [Decamethonium Iodide], the Ki rises from 0.0682 µM to 0.962 µM (14-fold).

`C[N+](C)(C)CC[N+]1(C)Cc2c(Cl)c(Cl)c(Cl)c(Cl)c2C1` [CAS_6243] showed a Ki of over 10 µM.
